Where “and” joins values, the source holds several entries; their conditions need not be identical. Identical values can stand only once. Marks after values point to notes of the source that are not given here.
What was measured:
[1] = Litter performance: total litter live weight and mean individual piglet weight; format: in vivo, swine
Experimental: In each of the Examples provided below, each piglet was weighed two days after birth, fourteen days after birth, and again at weaning. All data that is provided in Tables 4-9 below for the lactating sows is based upon individual data for each lactating sow, then-present, as least square means of the particular data over all lactating sows present in the test at the time the particular data was recorded. All data that is provided in Tables 4-9 below for the piglets is based upon data for each litter of piglets, then-present, as least square means of the particular data over all piglets of the litter present in the test at the time the particular data was recorded. Data for parameters presented in Tables 4-9 was analyzed using the general linear model (GLM) statistical procedure of SAS™ statistical analysis software for a randomized complete block design that included both the particular Iced regimen and the week of the test period in the model statement. The SAS™ statistical analysis software is available from SAS Institute, Inc. of Cary, N.C. Additionally, all data was analyzed to determine the mean of the data for each variable under consideration during the collection period for the particular data.
(§1) In this example, sixty-two (62) lactating sows were subjected to one of three different feeding trials that each began shortly (within 48 hours) after the lactating sows gave birth to piglets (i.e.: shortly after farrowing) and extended to the day the different piglets were wearied from the respective sows. The purpose of this example was to evaluate the effect of feeding lactating sows varying amounts of sugar alcohol, or no sugar alcohol, on subsequent piglet litter performance parameters, such as mortality prior to weaning and litter weight gain during the pre-weaning period. Sorbitol was used as the sugar alcohol in this example.
(§2) In Trial A, each of the lactating sows received the control feed plus about twenty-six grams of sorbitol per day. In Trial B, each of the lactating sows received the control feed plus about fifty-two grams of sorbitol per day.
Additionally, the collective body weights of the piglets assigned to each lactating sow of the three different trials were measured and recorded on day two post-farrowing (about forty-eight hours after farrowing), on day fourteen post-farrowing (fourteen days after farrowing), and on the day the piglets were weaned. The mean body weight values for each individual piglet of the three different trials were derived for each piglet individually from the weight data recorded for each piglet litter by dividing the collective litter weight determined for a particular litter by the total number of piglets then-present in the litter to attain the mean individual piglet weights on day two post-farrowing (about forty-eight hours after farrowing), on day fourteen post-farrowing (fourteen days after farrowing), and on the day the piglets were weaned.
In this example, the data from Example 1 was analyzed to remove data attributable to sows with a parity of only one. Parity refers to the number of litters a sow has previously given birth to during its life. Gilts or first-parity sows typically consume approximately fifteen to twenty percent less feed during lactation and also typically produce less milk than sows with parities greater than one. The litters of parity one sows also tend to have lower weaning weights and more health problems than the litters of sows with parities greater than one. The purpose of looking at the Example 1 data, as re-analyzed to remove the effect of parity one data, is to determine the influence of natural differences in feed intake and litter performance of parity one sows on the data presented in Example 1 above. Removing the data contributed by the […] parity one sows in Example 1, left the Control with fourteen sows of parity two or higher, left Trial A with sixteen sows of parity two or higher, and left Trial B with sixteen sows of parity two or higher. […]

nursing piglets = assay: Litter performance: number of nursing piglets and piglet mortality in litters of lactating sows fed sorbitol; format: in vivo, swine
Experimental: as §1
Immediately after farrowing, twenty sows were randomly assigned to the Control, twenty-one sows were randomly assigned to Trial A, and twenty-one sows were randomly assigned to Trial B. Sow assignment did take into account parity (number of litters per sow) to artificially balance parity across the Control, Trial A, and Trial B. The different sows of the Control, Trial A, and Trial B had parities ranging from one to more than two. Additionally, litter size was equalized between the different sows of the Control, Trial A, and Trial B within forty-eight hours after farrowing to assure that all sows, whether assigned to the Control, Trial A or Trial B, had the same, or about the same, number of nursing piglets. The reason for waiting forty-eight hours before cross-fostering in this fashion was to assure each piglet received colostrum from their original dam.
as §2
The lactating sows of both Trial A and Trial B received the same daily amount of control feed that was fed to the lactating sows of the Control with the exception that two pounds of the control feed provided daily to the lactating sows of both Trial A and Trial B were replaced with two pounds of a sorbitol-coated control feed (hereinafter referred to as “top-dressed control feed”). To create the top-dressed control feed, liquid sorbitol was heated to a temperature ranging from about 100° F. and about 120° F. The heated liquid sorbitol was then sprayed over a batch of about three hundred to four hundred pounds of the control feed and thoroughly mixed to form the top-dressed control feed. Following mixing, the top-dressed control feed was divided and separately bagged in two pound increments. An appropriate ratio of the liquid sorbitol to the control feed was selected for the top-dressed control feed destined for the Trial A lactating sows to assure that each two pound allotment of the control feed destined for the Trial A lactating sows included about twenty-six grams of sorbitol. Likewise, an appropriate ratio of the liquid sorbitol to the control feed was selected for the top-dressed control feed destined for the Trial B lactating sows to assure that each two pound allotment of the top-dressed control feed destined for the Trial B lactating sows included about fifty-two grams of sorbitol.
During the feeding trial of this example, the top dressed control feed was applied three times daily to the balance of the control feed being provided individually at that feeding to the individual lactating sows of Trial A and Trial B. Approximately one-third of the top-dressed control feed was provided to the sows in the morning feeding, approximately one-third of the top dressed control feed was provided to the lactating sows in the noon feeding, and the remaining approximate one-third of the top-dressed control feed was provided to the sows in the afternoon feeding. The twenty-one sows of Trial A each received a total of about two pounds of the top-dressed control feed containing about 26 grams of sorbitol per day. […]

[2] = Trial A, 26 grams sorbitol per day, Parity ≥ 1, At Weaning
[3] = Trial A, 26 grams sorbitol per day, Parity ≥ 1, Day 2
[4] = Trial A, 26 grams sorbitol per day, Parity ≥ 1, Day 14
[5] = Trial A, 26 grams sorbitol per day, Parity ≥2, At Weaning
[6] = Trial A, 26 grams sorbitol per day, Parity ≥2, Day 2
[7] = Trial A, 26 grams sorbitol per day, Parity ≥2, Day 14
[8] = Trial B, 52 grams sorbitol per day, Parity ≥ 1, At Weaning
[9] = Trial B, 52 grams sorbitol per day, Parity ≥ 1, Day 2
[10] = Trial B, 52 grams sorbitol per day, Parity ≥ 1, Day 14
[11] = Trial B, 52 grams sorbitol per day, Parity ≥2, At Weaning
[12] = Trial B, 52 grams sorbitol per day, Parity ≥2, Day 2
[13] = Trial B, 52 grams sorbitol per day, Parity ≥2, Day 14
[14] = Trial A, 26 grams sorbitol per day, Parity ≥ 1, day one post-farrowing to weaning
[15] = Trial A, 26 grams sorbitol per day, Parity ≥ 1, day one to day fourteen post-farrowing
[16] = Trial A, 26 grams sorbitol per day, Parity ≥ 2, day one post-farrowing to weaning
[17] = Trial A, 26 grams sorbitol per day, Parity ≥ 2, day one to day fourteen post-farrowing
[18] = Trial B, 52 grams sorbitol per day, Parity ≥ 1, day fourteen post-farrowing to weaning
[19] = Trial B, 52 grams sorbitol per day, Parity ≥ 1, day one post-farrowing to weaning
[20] = Trial B, 52 grams sorbitol per day, Parity ≥ 1, day one to day fourteen post-farrowing
[21] = Trial B, 52 grams sorbitol per day, Parity ≥ 2, day one post-farrowing to weaning
[22] = Trial B, 52 grams sorbitol per day, Parity ≥ 2, day one to day fourteen post-farrowing

OC[C@@H](O)[C@@H](O)[C@H](O)[C@@H](O)CO [sorbitol]
Mean Weight of Individual Piglets [1, 2]: 14.80 pounds | Total Live Weight of Litter [1, 2]: 147.53^de pounds | Mean Weight of Individual Piglets [1, 3]: 4.11 pounds | Total Live Weight of Litter [1, 3]: 43.29 pounds | Mean Weight of Individual Piglets [1, 4]: 10.59 pounds | Total Live Weight of Litter [1, 4]: 107.85 pounds | Mean Weight of Individual Piglets [1, 5]: 15.02 pounds | Total Live Weight of Litter [1, 5]: 150.42^bc pounds | Mean Weight of Individual Piglets [1, 6]: 4.14 pounds | Total Live Weight of Litter [1, 6]: 43.37 pounds | Mean Weight of Individual Piglets [1, 7]: 10.82 pounds | Total Live Weight of Litter [1, 7]: 109.76 pounds | Mean Weight of Individual Piglets [1, 8]: 15.55 pounds | Total Live Weight of Litter [1, 8]: 154.81 pounds and 154.81^e pounds | Mean Weight of Individual Piglets [1, 9]: 3.90 pounds | Total Live Weight of Litter [1, 9]: 41.17 pounds | Mean Weight of Individual Piglets [1, 10]: 10.39 pounds | Total Live Weight of Litter [1, 10]: 104.39 pounds | Mean Weight of Individual Piglets [1, 11]: 16.03 pounds | Total Live Weight of Litter [1, 11]: 159.86 pounds and 159.86^c pounds | Mean Weight of Individual Piglets [1, 12]: 4.18 pounds | Total Live Weight of Litter [1, 12]: 44.48 pounds | Mean Weight of Individual Piglets [1, 13]: 10.87 pounds | Total Live Weight of Litter [1, 13]: 109.25 pounds | Number of Nursing Piglets (nursing piglets; Trial A, 26 grams sorbitol per day to sows, Parity ≥ 1, Day 2): 10.57 | Number of Nursing Piglets (nursing piglets; [2]): 9.95 | Percentage Piglet Mortality (nursing piglets; Trial A, 26 grams sorbitol per day, Parity ≥ 1, Day 1 to Day 14): 3.99% and 3.99^c percent | Percentage Piglet Mortality (nursing piglets; Trial A, 26 grams sorbitol per day, Parity ≥ 1, Day 1 to Weaning): 5.69% and 5.69^c percent | Number of Nursing Piglets (nursing piglets; [4]): 10.14 | Percentage Piglet Mortality (nursing piglets; Trial A, 26 grams sorbitol per day, Parity ≥ 1, Day 14 to weaning): 1.74^d percent | piglet mortality drop versus Control (nursing piglets; [14]): 47.07% | piglet mortality percentage drop versus Control (nursing piglets; [14]): 5.06 percentage points | piglet mortality drop versus Control (nursing piglets; [15]): 54.97% | piglet mortality percentage drop versus Control (nursing piglets; [15]): 4.87 percentage points | Number of Nursing Piglets (nursing piglets; [5]): 10.01 | Percentage Piglet Mortality (nursing piglets; Trial A, 26 grams sorbitol per day, Parity ≥2, Day 1 to Day 14): 3.52% and 3.52^c percent | Percentage Piglet Mortality (nursing piglets; Trial A, 26 grams sorbitol per day, Parity ≥2, Day 1 to Weaning): 4.69% and 4.69^c percent | Number of Nursing Piglets (nursing piglets; [6]): 10.51 | Number of Nursing Piglets (nursing piglets; [7]): 10.14 | Percentage Piglet Mortality (nursing piglets; Trial A, 26 grams sorbitol per day, Parity ≥2, Day 14 to weaning): 1.23% | piglet mortality drop versus Control (nursing piglets; [16]): 63.27% | piglet mortality percentage drop versus Control (nursing piglets; [16]): 8.08 percentage points | piglet mortality drop versus Control (nursing piglets; [17]): 67.20% | piglet mortality percentage drop versus Control (nursing piglets; [17]): 7.21 percentage points | Number of Nursing Piglets (nursing piglets; Trial B, 52 grams sorbitol per day to sows, Parity ≥ 1, Day 2): 10.50 | Number of Nursing Piglets (nursing piglets; [8]): 10.03 | Percentage Piglet Mortality (nursing piglets; Trial B, 52 grams sorbitol per day, Parity ≥ 1, Day 1 to Day 14): 4.61% and 4.61^e percent | Percentage Piglet Mortality (nursing piglets; Trial B, 52 grams sorbitol per day, Parity ≥ 1, Day 1 to Weaning): 4.60% and 4.60^c percent | Number of Nursing Piglets (nursing piglets; [10]): 10.0 | Percentage Piglet Mortality (nursing piglets; Trial B, 52 grams sorbitol per day, Parity ≥ 1, Day 14 to weaning): 0.00% and 0.00^e percent | piglet mortality drop versus Control (nursing piglets; [18]): 100% | piglet mortality percentage drop versus Control (nursing piglets; [18]): 2.09 percentage points | piglet mortality drop versus Control (nursing piglets; [19]): 57.21% | piglet mortality percentage drop versus Control (nursing piglets; [19]): 6.15 percentage points | piglet mortality drop versus Control (nursing piglets; [20]): 47.97% | piglet mortality percentage drop versus Control (nursing piglets; [20]): 4.25 percentage points | Number of Nursing Piglets (nursing piglets; [11]): 10.02 | Percentage Piglet Mortality (nursing piglets; Trial B, 52 grams sorbitol per day, Parity ≥2, Day 1 to Day 14): 5.68% and 5.68^c percent | Percentage Piglet Mortality (nursing piglets; Trial B, 52 grams sorbitol per day, Parity ≥2, Day 1 to Weaning): 5.71% and 5.71^c percent | Number of Nursing Piglets (nursing piglets; [12]): 10.62 | Number of Nursing Piglets (nursing piglets; [13]): 10.02 | Percentage Piglet Mortality (nursing piglets; Trial B, 52 grams sorbitol per day, Parity ≥2, Day 14 to weaning): 0.00% | piglet mortality drop versus Control (nursing piglets; [21]): 55.29% | piglet mortality percentage drop versus Control (nursing piglets; [21]): 7.06 percentage points | piglet mortality drop versus Control (nursing piglets; [22]): 47.06% | piglet mortality percentage drop versus Control (nursing piglets; [22]): 5.05 percentage points

From patent publication US11452303B2, “Methods for feeding sows and for improving the health of young piglets” (PURINA ANIMAL NUTRITION LLC, priority 2003, dated 2022)
